The source of these data is ChEMBL document CHEMBL4196171, “Design of Gut-Restricted Thiazolidine Agonists of G Protein-Coupled Bile Acid Receptor 1 (GPBAR1, TGR5)” (J Med Chem, 2018).

Series [1] is described as follows: Drug concentration in bile/gall bladder of C57BL/6 mouse at 30 mg/kg, po measured after 8 hrs by HPLC and mass spectrometry. In kind it is ADME, organism-based. Conditions: read-out: Drug uptake; call rule not given here.
Series [2] in a line: Plasma concentration in C57BL/6 mouse at 30 mg/kg, po measured after 8 hrs by HPLC and mass spectrometry. In kind it is ADME, organism-based.
Series [3] can be described thus: Apparent permeability from apical to basolateral side in MDCK cells at 10 uM by HPLC-MS/MS method. In kind it is ADME, cell-based, Canis lupus familiaris. Conditions: dog.
Series [4] in a line: Drug recovery in C57BL/6 mouse bile/gall bladder at 30 mg/kg, po by LC-MS/MS method. In kind it is ADME, organism-based. Conditions: read-out: Drug recovery.
Series [5] in a line: Plasma concentration in C57BL/6 DIO mouse at 30 mg/kg, po measured after 4 to 16 hrs post dose by HPLC and mass spectrometry. In kind it is ADME, organism-based. Conditions: in vivo.
A short description of series [6]: Drug recovery in C57BL/6 mouse feces at 10 mg/kg, po after 48 hrs by LC-MS/MS method. In kind it is ADME, organism-based. Conditions: faeces, read-out: Drug recovery.
A short description of series [7]: Apparent permeability from basolateral to apical side in MDCK cells at 10 uM by HPLC-MS/MS method. In kind it is ADME, cell-based, Canis lupus familiaris. Conditions: dog.
A short description of series [8]: Cmax in C57BL/6 mouse plasma at 10 mg/kg, po by HPLC and mass spectrometry. In kind it is ADME, organism-based. Also on record: dose 10 mg/kg, route oral.
A short description of series [9]: Plasma concentration in C57BL/6 DIO mouse at 100 mg/kg, po measured after 4 to 16 hrs post dose by HPLC and mass spectrometry. In kind it is ADME, organism-based. Conditions: in vivo.
The nature of series [10]: AUC in C57BL/6 mouse plasma at 10 mg/kg, po by HPLC and mass spectrometry. In kind it is ADME, organism-based.
Series [11] can be described thus: Solubility in FeSSIF solution at 1 mg/ml at […] by HPLC with UV detector based assay. In kind it is physicochemical.

Values after ≈ are worked out from the molar mass of the structure shown.

For `CN(C[C@H](O)[C@@H](O)[C@H](O)[C@H](O)CO)C(=O)CC[C@H](NC(=O)CCCCc1cc(Cl)c(CN2CSC[C@H]2C(=O)N2CCN(C3CC3)c3ccccc32)cc1Cl)C(=O)O`, the results for the concentration at 8 h in series [1] and in series [2] were 1900 nM and 2.3 ng/mL, respectively.

For `O=C(NCCCCCc1cc(Cl)c(CN2CSC[C@H]2C(=O)N2CCN(C3CC3)c3ccccc32)cc1Cl)N1CCN(CP(=O)(O)O)CC1`, the concentration at 8 h in series [1] came out at 80 nM; in series [2] it was 2.8 ng/mL.

`CN(C[C@H](O)[C@@H](O)[C@H](O)[C@H](O)CO)C(=O)CCCCc1cc(Cl)c(CN2CSC[C@H]2C(=O)N2CCN(C3CC3)c3ccccc32)cc1Cl`: the concentration at 8 h in [1] worked out at 1300 nM; in series [2], 3.6 ng/mL.

Consider `C[C@@H](NC(=O)[C@@H](C)NC(=O)[C@@H](C)NC(=O)CCCCc1cc(Cl)c(CN2CSC[C@H]2C(=O)N2CCN(C3CC3)c3ccccc32)cc1Cl)C(=O)O`, for which the concentration at 8 h in series [1] stood at 1700 nM; in series [2], 0.6 ng/mL.

For the compound `O=C(O)CNC(=O)[C@H](CSSC[C@H](NC(=O)CC[C@H](NC(=O)CCCCc1cc(Cl)c(CN2CSC[C@H]2C(=O)N2CCN(C3CC3)c3ccccc32)cc1Cl)C(=O)O)C(=O)NCC(=O)O)NC(=O)CC[C@H](NC(=O)CCCCc1cc(Cl)c(CN2CSC[C@H]2C(=O)N2CCN(C3CC3)c3ccccc32)cc1Cl)C(=O)O`, the concentration at 8 h in series [1] was below 100 nM; in series [2], below 10 ng/mL.

Take `O=C(NC[C@H](O)[C@@H](O)[C@H](O)[C@H](O)CO)c1ccc(COc2cc(Cl)c(CN3CSC[C@H]3C(=O)N3CCN(C4CC4)c4ccccc43)cc2Cl)cc1`: the apical-to-basolateral permeability (Papp A→B) (commonly how fast a substance crosses the layer from the apical side) at 10 µM in [3] is below 0.01 ×10⁻⁶ cm/s. The dose excreted in series [4] was below 0.01%. The concentration at 8 h was 90 nM in series [1] and below 2 ng/mL in [2]. Besides, the Drug uptake entry in [5] and in series [9] was “Not Active” throughout. The dose excreted at 48 h in [6] turned out to be 83%. The basolateral-to-apical permeability (Papp B→A) (as a rule, how fast a substance crosses the layer from the basolateral side) at 10 µM in [7] was 0.07 ×10⁻⁶ cm/s. Also, the peak level in [8] (Cmax) was 2 ng/mL. Also, the AUC – broadly, concentration integrated over time – in series [10] was below 5 ng·h/mL. The solubility – broadly, how much of the substance goes into solution per volume – in series [11] came out at 820 µg/mL (≈ 1080 µM).

On to `O=C(NCCCCCc1cc(Cl)c(CN2CSC[C@H]2C(=O)N2CCN(C3CC3)c3ccccc32)cc1Cl)NC(CO)(CO)CO`, for which the results for the concentration at 8 h in series [1] and in series [2] were 6000 nM and 1.2 ng/mL, respectively.

In the case of `O=C(O)CN(CCCCCc1cc(Cl)c(CN2CSC[C@H]2C(=O)N2CCN(C3CC3)c3ccccc32)cc1Cl)CC(=O)O`, in series [1], the concentration at 8 h came to 4700 nM.

For the compound `O=C(NCCCN(CCCNC(=O)[C@H](O)[C@@H](O)[C@H](O)[C@H](O)CO)C(=O)NCCCCOc1cc(Cl)c(CN2CSC[C@H]2C(=O)N2CCN(C3CC3)c3ccccc32)cc1Cl)[C@H](O)[C@@H](O)[C@H](O)[C@H](O)CO`, the concentration at 8 h in series [1] is 300 nM.

`O=C(O)CN(C[C@H](O)[C@@H](O)[C@H](O)[C@H](O)CO)C(=O)CCCCc1cc(Cl)c(CN2CSC[C@H]2C(=O)N2CCN(C3CC3)c3ccccc32)cc1Cl`: in [1], the concentration at 8 h worked out at 3700 nM.

Consider `O=C(O)CNC(=O)CNC(=O)CNC(=O)CCCCc1cc(Cl)c(CN2CSC[C@H]2C(=O)N2CCN(C3CC3)c3ccccc32)cc1Cl`, for which the concentration at 8 h in series [1] is 600 nM; in series [2] it was below 0.5 ng/mL.

`O=C([C@@H]1CCCN1Cc1cc(Cl)ccc1Cl)N1CCN(C2CC2)c2ccccc21`: the concentration in solution in series [11] (solubility) came to 360 µg/mL (≈ 836 µM).

Turning to `O=C(CCCCc1cc(Cl)c(CN2CSC[C@H]2C(=O)N2CCN(C3CC3)c3ccccc32)cc1Cl)N[C@@H](C(=O)O)[C@@H](O)[C@H](O)[C@H](O)CO`, the results for the concentration at 8 h in series [1] and in series [2] were 3900 nM and 28.1 ng/mL, respectively.

`O=C(c1cccnc1Oc1cc(Cl)ccc1Cl)N1CCN(C2CC2)c2ccccc21` came in with a solubility in series [11] below 50 µg/mL.

On to `O=C(NCCCCCc1cc(Cl)c(CN2CSC[C@H]2C(=O)N2CCN(C3CC3)c3ccccc32)cc1Cl)NCP(=O)(O)O`, for which the concentration at 8 h in series [1] is 3100 nM; in [2], 24.8 ng/mL.
